Among the data in patent US20230002397A1, “SMALL MOLECULE DEGRADERS OF HELIOS AND METODS OF USE” (DANA-FARBER CANCER INSTITUTE, INC., priority 2019, published 2023) are Dmax and DC50 values, retold here.

Like-named read-outs stand apart in the source and are kept apart here. Where only a bound is given, the exact number is not on record here.

The target of the experiment is T1, IKZF2 (Homo sapiens, UniProt Q96SW2+Q9UKS7).
T1 construct: CRISPR/Cas9—mediated insertion of the HiBiT peptide tag (Promega™) to the N-terminus of the IKZF2 gene locus; endogenous in cells; host or cells: MOLT4 cells, with CRISPR/Cas9 knock-in of HiBiT at the endogenous IKZF2 locus
T1 sequence (Q9UKS7 whole entry): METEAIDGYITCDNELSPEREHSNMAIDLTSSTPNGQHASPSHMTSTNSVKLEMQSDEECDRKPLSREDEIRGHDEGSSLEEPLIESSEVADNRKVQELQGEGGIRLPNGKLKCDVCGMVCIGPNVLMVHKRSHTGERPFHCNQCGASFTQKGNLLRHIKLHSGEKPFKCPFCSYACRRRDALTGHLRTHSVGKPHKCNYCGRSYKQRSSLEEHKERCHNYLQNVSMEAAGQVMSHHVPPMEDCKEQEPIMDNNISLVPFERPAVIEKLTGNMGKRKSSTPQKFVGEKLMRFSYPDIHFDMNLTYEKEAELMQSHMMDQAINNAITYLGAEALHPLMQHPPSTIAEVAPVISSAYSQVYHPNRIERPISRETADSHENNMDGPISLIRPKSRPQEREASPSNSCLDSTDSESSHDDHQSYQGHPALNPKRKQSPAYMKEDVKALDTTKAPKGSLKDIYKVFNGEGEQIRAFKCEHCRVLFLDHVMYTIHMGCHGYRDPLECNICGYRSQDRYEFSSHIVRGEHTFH
T1 sequence (Q96SW2 whole entry): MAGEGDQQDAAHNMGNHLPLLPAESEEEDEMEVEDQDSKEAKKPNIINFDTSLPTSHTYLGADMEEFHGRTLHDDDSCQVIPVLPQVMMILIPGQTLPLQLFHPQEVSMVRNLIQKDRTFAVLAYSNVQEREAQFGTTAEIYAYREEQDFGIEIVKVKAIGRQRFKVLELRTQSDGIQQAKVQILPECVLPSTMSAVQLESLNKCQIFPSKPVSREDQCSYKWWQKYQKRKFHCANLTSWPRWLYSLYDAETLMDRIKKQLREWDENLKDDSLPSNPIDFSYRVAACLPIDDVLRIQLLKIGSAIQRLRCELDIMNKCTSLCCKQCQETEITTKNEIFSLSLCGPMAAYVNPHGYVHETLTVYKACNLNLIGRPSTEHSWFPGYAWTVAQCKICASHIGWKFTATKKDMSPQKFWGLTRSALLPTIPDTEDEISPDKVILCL
T1 sequence (Q16531 whole entry partner): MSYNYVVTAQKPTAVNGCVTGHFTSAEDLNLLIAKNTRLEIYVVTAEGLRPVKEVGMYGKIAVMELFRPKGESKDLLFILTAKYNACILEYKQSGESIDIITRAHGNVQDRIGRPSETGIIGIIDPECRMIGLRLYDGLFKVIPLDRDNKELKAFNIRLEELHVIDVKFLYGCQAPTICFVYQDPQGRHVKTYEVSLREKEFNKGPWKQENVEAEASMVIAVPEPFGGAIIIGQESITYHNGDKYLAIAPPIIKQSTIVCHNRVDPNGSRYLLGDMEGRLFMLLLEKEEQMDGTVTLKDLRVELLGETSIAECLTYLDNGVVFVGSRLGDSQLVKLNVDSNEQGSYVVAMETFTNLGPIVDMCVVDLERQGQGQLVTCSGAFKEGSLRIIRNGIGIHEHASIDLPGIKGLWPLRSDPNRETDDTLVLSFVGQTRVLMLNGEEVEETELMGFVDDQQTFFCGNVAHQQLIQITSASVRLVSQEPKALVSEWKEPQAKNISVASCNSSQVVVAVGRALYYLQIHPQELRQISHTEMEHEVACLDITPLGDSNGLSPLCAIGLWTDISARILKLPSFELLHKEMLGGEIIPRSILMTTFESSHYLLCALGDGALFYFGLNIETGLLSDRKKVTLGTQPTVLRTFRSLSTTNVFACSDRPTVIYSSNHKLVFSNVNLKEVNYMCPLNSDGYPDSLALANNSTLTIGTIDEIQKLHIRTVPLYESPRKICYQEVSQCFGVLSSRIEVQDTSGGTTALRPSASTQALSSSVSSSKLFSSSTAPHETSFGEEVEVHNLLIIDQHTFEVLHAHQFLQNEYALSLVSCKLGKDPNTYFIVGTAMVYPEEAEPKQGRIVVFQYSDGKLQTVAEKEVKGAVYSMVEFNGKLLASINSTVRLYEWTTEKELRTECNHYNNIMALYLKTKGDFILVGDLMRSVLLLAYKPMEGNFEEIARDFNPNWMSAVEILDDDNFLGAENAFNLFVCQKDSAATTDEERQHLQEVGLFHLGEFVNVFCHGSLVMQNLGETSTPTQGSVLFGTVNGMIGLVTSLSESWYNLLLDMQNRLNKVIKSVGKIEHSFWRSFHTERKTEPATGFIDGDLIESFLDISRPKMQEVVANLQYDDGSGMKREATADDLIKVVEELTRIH
The experiment in a line: HiBit-IKZF2 assay (HiBiT-Helios degradation in MOLT4 cells). The class given is cell-based. The following applies: for Dmax: 10 μM to 0.00026 μM; for DC50: concentration at which 50% of HiBiT-Helios degradation was achieved. The method, boiled down:
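MOLT4 cells carried an endogenous N-terminal HiBiT tag on IKZF2, knocked in by CRISPR. Cells were treated in triplicate at 13 concentrations (10 μM–0.00026 μM), and remaining HiBiT-Helios was read by lytic luminescence at set timepoints. Data were normalized to DMSO to give the 50% degradation concentration, with Dmax taken from the luminescence range.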
(In general: The HiBiT peptide binds its large partner to form an active luciferase.)

The mark [1] stands for this setting: MOLT-4, extent of degradation from highest to lowest concentration, read-out: Dmax.

Regarding `CN(c1cccc(CN2CCC(c3ccc4c(c3)CN(C3CCC(=O)NC3=O)C4=O)CC2)c1)c1ncccn1` (stereo not shown) [Compound 232], the DC50 (commonly the concentration giving 50% degradation) lay in the range of 10 to 30 nM. Also, under setting [1], the Dmax (usually the greatest extent of degradation seen) is 50 to 70%.
For `O=C1CCC(N2Cc3cc(C4CCN(Cc5cccc(Nc6ccsn6)c5)CC4)ccc3C2=O)C(=O)N1` (stereo not shown) [Compound 233] the same measures were 10 to 30 nM and 50 to 70%.
In turn, `O=C1CCC(N2Cc3cc(C4(O)CCN(Cc5ccc6ncn(-c7ccccc7)c(=O)c6c5)CC4)ccc3C2=O)C(=O)N1` (stereo not shown) [Compound 234] yielded a half-maximal degradation concentration (DC50) of under 10 nM. In addition, where the note is “extent of degradation from highest to lowest concentration”, the Dmax entry is recorded as “+++ (“+++” is >70%)”.
`O=C1CCC(N2Cc3cc(C4(O)CCN(Cc5ccc6ncn(-c7ccccn7)c(=O)c6c5)CC4)ccc3C2=O)C(=O)N1` (stereo not shown) [Compound 235] yielded a DC50 of under 10 nM. Moreover, the maximal degradation (Dmax) under setting [1] was over 70%.
For `O=C1CCC(N2Cc3cc(C4(O)CCN(Cc5ccc6ccc(-c7ccccc7)nc6c5)CC4)ccc3C2=O)C(=O)N1` (stereo not shown) [Compound 236] the same measures were under 10 nM and over 70%.
`N#Cc1ccccc1CN1CCC(O)(c2ccc3c(c2)CN(C2CCC(=O)NC2=O)C3=O)CC1` (stereo not shown) [Compound 237] displayed a DC50 of under 10 nM. The maximal degradation (Dmax) under setting [1] lay in the range of 50 to 70%.
For `N#Cc1cccc(CN2CCC(O)(c3ccc4c(c3)CN(C3CCC(=O)NC3=O)C4=O)CC2)c1` (stereo not shown) [Compound 238] the same measures were under 10 nM and over 70%.
For `N#Cc1ccc(CN2CCC(O)(c3ccc4c(c3)CN(C3CCC(=O)NC3=O)C4=O)CC2)cc1` (stereo not shown) [Compound 239] the same measures were under 10 nM and over 70%.
Turning to `O=C1CCC(N2Cc3cc(C4(O)CCN(Cc5cnc(-c6ccccc6)s5)CC4)ccc3C2=O)C(=O)N1` (stereo not shown) [Compound 240], the half-maximal degradation concentration (DC50) was under 10 nM. Further, under setting [1], the maximal degradation (Dmax) is over 70%.
For `O=C1CCC(N2Cc3cc(C4(O)CCN(Cc5cccc6scnc56)CC4)ccc3C2=O)C(=O)N1` (stereo not shown) [Compound 241] the same measures were under 10 nM and over 70%.
Taken in the same sequence, the figures for `O=C1CCC(N2Cc3cc(C4(O)CCN(Cc5ccc6ncsc6c5)CC4)ccc3C2=O)C(=O)N1` (stereo not shown) [Compound 242] were under 10 nM and over 70%.
For `O=C1CCC(N2Cc3cc(C4(O)CCN(Cc5cccc(F)c5F)CC4)ccc3C2=O)C(=O)N1` (stereo not shown) [Compound 243] the same measures were under 10 nM and over 70%.
In turn, `O=C1CCC(N2Cc3cc(C4(O)CCN(Cc5ccc(F)c(F)c5)CC4)ccc3C2=O)C(=O)N1` (stereo not shown) [Compound 244] had a DC50 of under 10 nM. For the same molecule, under setting [1], the maximal degradation (Dmax) was over 70%.
Consider `O=C1CCC(N2Cc3cc(C4(O)CCN(Cc5c(F)cccc5F)CC4)ccc3C2=O)C(=O)N1` (stereo not shown) [Compound 245], for which the half-maximal degradation concentration (DC50) is under 10 nM. Besides, the Dmax under setting [1] lay in the range of 50 to 70%.
For `O=C1CCC(N2Cc3cc(C4(O)CCN(Cc5ccc6c(c5)CCO6)CC4)ccc3C2=O)C(=O)N1` (stereo not shown) [Compound 246] the same measures were under 10 nM and over 70%.
For `O=C1CCC(N2Cc3cc(C4(O)CCN(Cc5ccc(OC(F)F)cc5)CC4)ccc3C2=O)C(=O)N1` (stereo not shown) [Compound 247] the same measures were under 10 nM and over 70%.
Taken in the same sequence, the figures for `O=C1CCC(N2Cc3cc(C4(O)CCN(Cc5ccccc5OC(F)F)CC4)ccc3C2=O)C(=O)N1` (stereo not shown) [Compound 248] were under 10 nM and over 70%.
The molecule `O=C1CCC(N2Cc3cc(C4(O)CCN(Cc5ccccc5C(F)(F)F)CC4)ccc3C2=O)C(=O)N1` (stereo not shown) [Compound 249] yielded a DC50 of under 10 nM. Also, the greatest degradation seen (Dmax) under setting [1] was over 70%.
For `O=C1CCC(N2Cc3cc(C4(O)CCN(Cc5cccc(C(F)(F)F)c5)CC4)ccc3C2=O)C(=O)N1` (stereo not shown) [Compound 250] the same measures were under 10 nM and over 70%.
For `O=C1CCC(N2Cc3cc(C4(O)CCN(Cc5ccc(C(F)(F)F)cc5)CC4)ccc3C2=O)C(=O)N1` (stereo not shown) [Compound 251] the same measures were under 10 nM and over 70%.
For `O=C1CCC(N2Cc3cc(C4(O)CCN(Cc5ccccc5Oc5ccccc5)CC4)ccc3C2=O)C(=O)N1` (stereo not shown) [Compound 252] the same measures were under 10 nM and over 70%.
`O=C1CCC(N2Cc3cc(C4(O)CCN(Cc5ccc(Oc6ccccc6)cc5)CC4)ccc3C2=O)C(=O)N1` (stereo not shown) [Compound 253] showed a DC50 of under 10 nM. In addition, the Dmax under setting [1] was in the range of 50 to 70%.
Taken in the same sequence, the figures for `O=C1CCC(N2Cc3cc(C4(O)CCN(Cc5cccc(F)c5Cl)CC4)ccc3C2=O)C(=O)N1` (stereo not shown) [Compound 254] were under 10 nM and over 70%.
For `O=C1CCC(N2Cc3cc(C4(O)CCN(Cc5ccc(F)c(Cl)c5)CC4)ccc3C2=O)C(=O)N1` (stereo not shown) [Compound 255] the same measures were under 10 nM and over 70%.
`O=C1CCC(N2Cc3cc(C4(O)CCN(Cc5ccccc5F)CC4)ccc3C2=O)C(=O)N1` (stereo not shown) [Compound 256] yielded a DC50 of under 10 nM. For the same molecule, the greatest degradation seen (Dmax) under setting [1] is over 70%.
Taken in the same sequence, the figures for `O=C1CCC(N2Cc3cc(C4(O)CCN(Cc5cccc(F)c5)CC4)ccc3C2=O)C(=O)N1` (stereo not shown) [Compound 257] were under 10 nM and over 70%.
Taken in the same sequence, the figures for `O=C1CCC(N2Cc3cc(C4(O)CCN(Cc5ccc(F)cc5)CC4)ccc3C2=O)C(=O)N1` (stereo not shown) [Compound 258] were under 10 nM and over 70%.
Taken in the same sequence, the figures for `O=C1CCC(N2Cc3cc(C4(O)CCN(Cc5nc6ccccc6s5)CC4)ccc3C2=O)C(=O)N1` (stereo not shown) [Compound 260] were 10 to 30 nM and 50 to 70%.
In turn, `COc1cccc(CN2CCC(O)(c3ccc4c(c3)CN(C3CCC(=O)NC3=O)C4=O)CC2)c1` (stereo not shown) [Compound 261] registered a DC50 of under 10 nM. Also, the Dmax under setting [1] was over 70%.
Take `COc1ccc(CN2CCC(O)(c3ccc4c(c3)CN(C3CCC(=O)NC3=O)C4=O)CC2)cc1` (stereo not shown) [Compound 262]: the DC50 is 10 to 30 nM. For the same molecule, the Dmax under setting [1] is 50 to 70%.
Taken in the same sequence, the figures for `COc1ccccc1CN1CCC(O)(c2ccc3c(c2)CN(C2CCC(=O)NC2=O)C3=O)CC1` (stereo not shown) [Compound 263] were under 10 nM and over 70%.
Taken in the same sequence, the figures for `Cc1cccc(CN2CCC(O)(c3ccc4c(c3)CN(C3CCC(=O)NC3=O)C4=O)CC2)c1` (stereo not shown) [Compound 264] were under 10 nM and over 70%.
`Cc1ccccc1CN1CCC(O)(c2ccc3c(c2)CN(C2CCC(=O)NC2=O)C3=O)CC1` (stereo not shown) [Compound 265] returned a DC50 of under 10 nM. Further, the Dmax under setting [1] is over 70%.
For `Cc1ccc(CN2CCC(O)(c3ccc4c(c3)CN(C3CCC(=O)NC3=O)C4=O)CC2)cc1` (stereo not shown) [Compound 266] the same measures were under 10 nM and over 70%.
Taken in the same sequence, the figures for `O=C1CCC(N2Cc3cc(C4(O)CCN(Cc5ccccc5Cl)CC4)ccc3C2=O)C(=O)N1` (stereo not shown) [Compound 267] were under 10 nM and over 70%.
Taken in the same sequence, the figures for `O=C1CCC(N2Cc3cc(C4(O)CCN(Cc5ccc(Cl)cc5)CC4)ccc3C2=O)C(=O)N1` (stereo not shown) [Compound 268] were under 10 nM and over 70%.
`CC(c1ccccc1)N1CCC(O)(c2ccc3c(c2)CN(C2CCC(=O)NC2=O)C3=O)CC1` (stereo not shown) [Compound 269] had a half-maximal degradation concentration (DC50) of under 10 nM. The Dmax under setting [1] is over 70%.
For `O=C1CCC(N2Cc3cc(C4(O)CCN(Cc5ccc(C6CC6)cc5)CC4)ccc3C2=O)C(=O)N1` (stereo not shown) [Compound 270], the DC50 is under 10 nM. Under setting [1], the Dmax was over 70%.
